Data as given in ChEMBL document CHEMBL6078668, “Synthesis and biological evaluation of lappaconitine analogues as potential anti-neuroinflammatory agents by side chain modification and scaffold hopping strategy” (Bioorg Med Chem, 2025).

Assays:
[1] = Cytotoxicity against C57BL/6 mouse BV-2 cells assessed as survival rate at 30 uM incubated for 24 hrs by MTT assay relative to control; type: toxicity, cell-based; settings: read-out: Survival
[2] = system: BV-2; experiment: Anti-neuroinflammatory activity against LPS-stimulated C57BL/6 mouse BV-2 cells assessed as inhibition of NO release at 30 uM preincubated with compound for 4 hrs followed by LPS addition and measured after 24 hrs by Griess reagent based assay relative to control; type: functional; settings: C57BL/6, BV-2, time 28 hrs

Structure (SMILES) | viability at 24 h, 30 µM [1] | inhibition at 30 µM [2]
CCN1C[C@]2(COC(=O)c3ccccc3NS(=O)(=O)c3cccc(F)c3)CC[C@H](OC)[C@]34C1[C@@H](C[C@H]23)[C@@]1(O)C[C@H](OC)[C@H]2C[C@@H]4[C@]1(O)[C@H]2OC | 102% | 20.1%
CCN1C[C@]2(OC(=O)c3ccccc3NC(=O)S(=O)(=O)c3ccc(NC(C)=O)cc3)CC[C@H](OC)[C@]34C1[C@@H](C[C@H]23)[C@@]1(O)C[C@H](OC)[C@H]2C[C@@H]4[C@]1(O)[C@H]2OC | 104% | 10.4%
CCN1C[C@]2(OC(=O)c3ccccc3NC(=O)S(=O)(=O)c3ccc(Cl)cc3)CC[C@H](OC)[C@]34C1[C@@H](C[C@H]23)[C@@]1(O)C[C@H](OC)[C@H]2C[C@@H]4[C@]1(O)[C@H]2OC | 100% | 39.2%
CCN1C[C@]2(OC(=O)c3ccccc3NC(=O)S(=O)(=O)c3ccccc3C#N)CC[C@H](OC)[C@]34C1[C@@H](C[C@H]23)[C@@]1(O)C[C@H](OC)[C@H]2C[C@@H]4[C@]1(O)[C@H]2OC | 101% | 27.5%
CCN1C[C@]2(OC(=O)c3ccccc3NC(=O)S(=O)(=O)c3ccc(C)cc3)CC[C@H](OC)[C@]34C1[C@@H](C[C@H]23)[C@@]1(O)C[C@H](OC)[C@H]2C[C@@H]4[C@]1(O)[C@H]2OC | 102% | 31.7%
COC(=O)c1ccccc1NS(=O)(=O)c1ccc(Br)s1 | 99.1% | 43.8%
CCOc1ccc(C(=O)Nc2ccccc2C(=O)O[C@@]23CC[C@H](OC)[C@]45C([C@@H](C[C@H]24)[C@@]2(O)C[C@H](OC)[C@H]4C[C@@H]5[C@]2(O)[C@H]4OC)N(CC)C3)cc1 | 101% | 53.6%
CCN1C[C@]2(OC(=O)c3ccccc3NC(=O)S(=O)(=O)c3ccc(OC)c(F)c3)CC[C@H](OC)[C@]34C1[C@@H](C[C@H]23)[C@@]1(O)C[C@H](OC)[C@H]2C[C@@H]4[C@]1(O)[C@H]2OC | 103% | 11.1%
CCN1C[C@]2(OC(=O)c3ccccc3NC(=O)S(=O)(=O)c3cccc(C)c3)CC[C@H](OC)[C@]34C1[C@@H](C[C@H]23)[C@@]1(O)C[C@H](OC)[C@H]2C[C@@H]4[C@]1(O)[C@H]2OC | 106% | 46.5%
CCN1C[C@]2(OC(=O)c3ccccc3NC(=O)S(=O)(=O)c3cccc4cccnc34)CC[C@H](OC)[C@]34C1[C@@H](C[C@H]23)[C@@]1(O)C[C@H](OC)[C@H]2C[C@@H]4[C@]1(O)[C@H]2OC | 103% | 46.2%
CCN1C[C@]2(OC(=O)c3ccccc3NC(=O)S(=O)(=O)c3csc4ccccc34)CC[C@H](OC)[C@]34C1[C@@H](C[C@H]23)[C@@]1(O)C[C@H](OC)[C@H]2C[C@@H]4[C@]1(O)[C@H]2OC | 100% | 30.7%
O=C(O)c1ccccc1NS(=O)(=O)c1ccc(Br)s1 | 96.5% | 18.4%
CCN1C[C@]2(OC(=O)c3ccccc3NC(=O)S(=O)(=O)Cc3ccc([N+](=O)[O-])cc3)CC[C@H](OC)[C@]34C1[C@@H](C[C@H]23)[C@@]1(O)C[C@H](OC)[C@H]2C[C@@H]4[C@]1(O)[C@H]2OC | 98.9% | 22.7%
CCN1C[C@]2(COC(=O)c3ccccc3NS(=O)(=O)c3cccc(F)c3)CC[C@H](OC)[C@]34C1[C@@H](C[C@H]23)[C@@]1(O)C[C@H](OC)[C@H]2C[C@@H]4[C@]1(O)[C@H]2O | 106% | 17.9%
CCN1C[C@]2(OC(=O)c3ccccc3NC(=O)S(=O)(=O)c3ccc(C(=O)OC)cc3)CC[C@H](OC)[C@]34C1[C@@H](C[C@H]23)[C@@]1(O)C[C@H](OC)[C@H]2C[C@@H]4[C@]1(O)[C@H]2OC | 104% | 15.7%
CCN1C[C@]2(OC(=O)c3ccccc3NC(=O)S(=O)(=O)c3ccc(Br)cc3)CC[C@H](OC)[C@]34C1[C@@H](C[C@H]23)[C@@]1(O)C[C@H](OC)[C@H]2C[C@@H]4[C@]1(O)[C@H]2OC | 109% | 40.8%
CCN1C[C@]2(OC(=O)c3ccccc3NC(=O)c3ccc(OC)c(OC)c3)CC[C@H](OC)[C@]34C1[C@@H](C[C@H]23)[C@@]1(O)C[C@H](OC)[C@H]2C[C@@H]4[C@]1(O)[C@H]2OC | 102% | 14.3%
CCN1C[C@]2(OC(=O)c3ccccc3NC(=O)S(=O)(=O)c3ccc(F)cc3)CC[C@H](OC)[C@]34C1[C@@H](C[C@H]23)[C@@]1(O)C[C@H](OC)[C@H]2C[C@@H]4[C@]1(O)[C@H]2OC | 109% | 40.6%
CCN1C[C@]2(OC(=O)c3ccccc3NC(=O)S(=O)(=O)c3cncc(Br)c3)CC[C@H](OC)[C@]34C1[C@@H](C[C@H]23)[C@@]1(O)C[C@H](OC)[C@H]2C[C@@H]4[C@]1(O)[C@H]2OC | 91.5% | 20.3%

Structure (SMILES) | viability at 24 h, 30 µM [1] | inhibition at 30 µM [2]
CCN1C[C@]2(OC(=O)c3ccccc3NC(=O)c3ccc(F)cc3)CC[C@H](OC)[C@]34C1[C@@H](C[C@H]23)[C@@]1(O)C[C@H](OC)[C@H]2C[C@@H]4[C@]1(O)[C@H]2OC | 104% | 22.3%
O=C(Nc1ccccc1C(=O)O)c1ccc(Cl)s1 | 98.7% | 32.4%
CCN1C[C@]2(OC(=O)c3ccccc3NC(=O)S(=O)(=O)c3ccc(OC)cc3OC)CC[C@H](OC)[C@]34C1[C@@H](C[C@H]23)[C@@]1(O)C[C@H](OC)[C@H]2C[C@@H]4[C@]1(O)[C@H]2OC | 99.7% | 20.9%
CCN1C[C@]2(OC(=O)c3ccccc3NC(=O)c3cccc(F)c3)CC[C@H](OC)[C@]34C1[C@@H](C[C@H]23)[C@@]1(O)C[C@H](OC)[C@H]2C[C@@H]4[C@]1(O)[C@H]2OC | 107% | 11%
CCN1C[C@]2(OC(=O)c3ccccc3NC(=O)S(=O)(=O)c3ccc(F)cc3C)CC[C@H](OC)[C@]34C1[C@@H](C[C@H]23)[C@@]1(O)C[C@H](OC)[C@H]2C[C@@H]4[C@]1(O)[C@H]2OC | 92.7% | 32.2%
CCN1C[C@]2(OC(=O)c3ccccc3NC(=O)S(=O)(=O)c3ccccc3OC)CC[C@H](OC)[C@]34C1[C@@H](C[C@H]23)[C@@]1(O)C[C@H](OC)[C@H]2C[C@@H]4[C@]1(O)[C@H]2OC | 103% | 15.2%
CCN1C[C@]2(OC(=O)c3ccccc3NC(=O)CCc3ccccc3)CC[C@H](OC)[C@]34C1[C@@H](C[C@H]23)[C@@]1(O)C[C@H](OC)[C@H]2C[C@@H]4[C@]1(O)[C@H]2OC | 108% | 16.6%
CCN1C[C@]2(OC(=O)c3ccccc3NC(=O)c3cccc(Cl)c3)CC[C@H](OC)[C@]34C1[C@@H](C[C@H]23)[C@@]1(O)C[C@H](OC)[C@H]2C[C@@H]4[C@]1(O)[C@H]2OC | 104% | 12.9%
CCCCCCC(=O)Nc1ccccc1C(=O)O[C@@]12CC[C@H](OC)[C@]34C([C@@H](C[C@H]13)[C@@]1(O)C[C@H](OC)[C@H]3C[C@@H]4[C@]1(O)[C@H]3OC)N(CC)C2 | 100% | 30%
CCN1C[C@]2(OC(=O)c3ccccc3NC(=O)c3ccc(S(C)(=O)=O)cc3)CC[C@H](OC)[C@]34C1[C@@H](C[C@H]23)[C@@]1(O)C[C@H](OC)[C@H]2C[C@@H]4[C@]1(O)[C@H]2OC | 103% | 20%
CCN1C[C@]2(OC(=O)c3ccccc3NC(=O)c3cccc(OC)c3)CC[C@H](OC)[C@]34C1[C@@H](C[C@H]23)[C@@]1(O)C[C@H](OC)[C@H]2C[C@@H]4[C@]1(O)[C@H]2OC | 107% | 44.9%
CCN1C[C@]2(OC(=O)c3ccccc3NC(=O)C3CCCO3)CC[C@H](OC)[C@]34C1[C@@H](C[C@H]23)[C@@]1(O)C[C@H](OC)[C@H]2C[C@@H]4[C@]1(O)[C@H]2OC (some centres undefined) | 108% | 14.5%
CCN1C[C@]2(OC(=O)c3ccccc3NC(=O)S(=O)(=O)c3cc(Cl)ccc3F)CC[C@H](OC)[C@]34C1[C@@H](C[C@H]23)[C@@]1(O)C[C@H](OC)[C@H]2C[C@@H]4[C@]1(O)[C@H]2OC | 95.1% | 36.1%
CCN1C[C@]2(OC(=O)c3ccccc3NC(=O)S(=O)(=O)c3cccc4ccccc34)CC[C@H](OC)[C@]34C1[C@@H](C[C@H]23)[C@@]1(O)C[C@H](OC)[C@H]2C[C@@H]4[C@]1(O)[C@H]2OC | 105% | 30.5%
CCCCOC(=O)c1ccccc1NC(=O)c1ccc(Cl)s1 | 110% | 42.8%
CCN1C[C@]2(OC(=O)c3ccccc3NC(=O)c3ccccc3)CC[C@H](OC)[C@]34C1[C@@H](C[C@H]23)[C@@]1(O)C[C@H](OC)[C@H]2C[C@@H]4[C@]1(O)[C@H]2OC | 107% | 36%
CCN1C[C@]2(OC(=O)c3ccccc3NC(=O)S(=O)(=O)c3cc(OC)ccc3OC)CC[C@H](OC)[C@]34C1[C@@H](C[C@H]23)[C@@]1(O)C[C@H](OC)[C@H]2C[C@@H]4[C@]1(O)[C@H]2OC | 102% | 26.3%
CCN1C[C@]2(OC(=O)c3ccccc3NC(=O)S(=O)(=O)c3ccc(C)c(Cl)c3)CC[C@H](OC)[C@]34C1[C@@H](C[C@H]23)[C@@]1(O)C[C@H](OC)[C@H]2C[C@@H]4[C@]1(O)[C@H]2OC | 94.8% | 25.2%
